Data taken from patent US20230348475A1, “IMIDAZOPYRIDAZINE AND IMIDAZOPYRAZINE COMPOUNDS AS INHIBITORS OF CDK7” (THE TRANSLATIONAL GENOMICS RESEARCH INSTITUTE, priority 2020, published 2023).
Counter-ions that a name gives are not always drawn.

Assays:
CDK7/CycH/MAT1 = CDK7/CycH/MAT1 (Homo sapiens, UniProt P50613); assay: Kinase Glo (ADP-Glo) biochemical assay, CDK7; settings: CDK7/CycH/MAT1 40 ng, ATP 1 μM, 60 minutes at RT, luminescence
Protocol: Materials: • Assay Buffer: 50 mM HEPES, 3 mM MgCl2, 3 mM MnCl2, 1 mM DTT, 3 μM Na3VO4, pH 7.5 • Substrate RB • CTF Peptide (ProQinase #: 0040-0000-6) • Enzymes • CDK7/CycH/MAT1 (ProQinase #: 0366-0360-4) • ADP-Glo™ Assay (Promega #: V9101) • ATP: 10 mM • ADP-Glo™ Reagent • Kinase Detection Reagent • 384-well white assay plates
A ten point serial dilution of compound was prepared at 5X concentration in assay buffer with the final assay concentrations starting at 30 μM, 10 μM, 3 μM, 1 μM . . . 0 μM. Enzyme, substrate, and ATP were used at 40 ng, 200 ng (or 400 ng)* and 1 μM, respectively. The assay plate was set up by mixing the components in a total reaction volume of 10 μL per well. The plate was centrifuged gently for 10 seconds and incubated at room temperature (RT) for 60 minutes in the dark. The ADP-Glo Reagent and kinase detection reagent were added and incubated as recommended. The reaction was quantified by measuring luminescence on the Perkin Elmer Envision plate reader.

[1] = system: Kasumi1 leukemia cancer cell line; assay: Cell viability assay (Cell Titer Glo), Kasumi1; format: cell-based; settings: 72 hour incubation
Protocol: (§1) Materials: • Cell Lines (Treated according to ATCC guidelines) • Cell Titer Glo (Promega Cat #G7572) • DMSO • 96-well White Tissue Culture Treated Plates (Perkin Elmer Cat #60005680)
(§2) Cells were seeded in a white 96-well tissue culture treated plate at a density of 1500 cells in 90 μL of media per well and allowed to settle overnight. A ten point serial dilution of drugs was prepared at 10×concentration in media with the final assay concentrations starting at 30 μM, 10 μM, 3 μM, 1 μM, 0.3 μM . . . 0 μM. A dilution of DMSO was included as a control. The assay was set up by adding 10 μL of the corresponding drug to each well in duplicate, followed by a 72 hour incubation at 37° C., 5% CO2. Cell viability was quantified by adding 90 μL of Cell Titer Glo to each well and incubating at room temperature for 10 minutes. The reaction was quantified by measuring luminescence using the Envision Plate Reader. Data was analyzed using Graphpad Prism 7 software.

[2] = system: MiaPaCa2 pancreatic cancer cell line; assay: Cell viability assay (Cell Titer Glo), MiaPaCa2; format: cell-based; settings: Table 7a, pancreatic cancer cell line, 72 hour incubation
Protocol: as §1, §2

[3] = system: MDA-MB-231 breast cancer cell line; assay: Cell viability assay (Cell Titer Glo), MDA-MB-231; format: cell-based; settings: Table 7a, breast cancer cell line, 72 hour incubation
Protocol: as §1, §2

[4] = system: HPAC pancreatic cancer cell line; assay: Cell viability assay (Cell Titer Glo), HPAC; format: cell-based; settings: Table 7a, pancreatic cancer cell line, 72 hour incubation
Protocol: as §1, §2

[5] = system: A2780 ovarian cancer cell line; assay: Cell viability assay (Cell Titer Glo), A2780; format: cell-based; settings: 72 hour incubation
Protocol: as §1, §2

[6] = system: A673 Ewingsarcoma cell line; assay: Cell viability assay (Cell Titer Glo), A673; format: cell-based; settings: 72 hour incubation
Protocol: as §1, §2

[7] = Homo sapiens, Kasumi 1, Table 7a

CDK7/CycH/MAT1, sequence (P50613 whole entry): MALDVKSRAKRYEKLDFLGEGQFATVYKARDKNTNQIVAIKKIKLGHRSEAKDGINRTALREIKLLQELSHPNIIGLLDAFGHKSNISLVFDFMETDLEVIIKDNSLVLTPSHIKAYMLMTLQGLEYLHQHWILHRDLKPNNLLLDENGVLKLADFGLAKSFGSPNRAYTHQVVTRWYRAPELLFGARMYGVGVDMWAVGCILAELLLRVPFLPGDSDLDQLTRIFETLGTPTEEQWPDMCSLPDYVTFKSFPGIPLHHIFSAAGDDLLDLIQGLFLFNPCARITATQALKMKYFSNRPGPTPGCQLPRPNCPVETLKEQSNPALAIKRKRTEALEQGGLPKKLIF
CDK7/CycH/MAT1, sequence (P51946 whole entry partner): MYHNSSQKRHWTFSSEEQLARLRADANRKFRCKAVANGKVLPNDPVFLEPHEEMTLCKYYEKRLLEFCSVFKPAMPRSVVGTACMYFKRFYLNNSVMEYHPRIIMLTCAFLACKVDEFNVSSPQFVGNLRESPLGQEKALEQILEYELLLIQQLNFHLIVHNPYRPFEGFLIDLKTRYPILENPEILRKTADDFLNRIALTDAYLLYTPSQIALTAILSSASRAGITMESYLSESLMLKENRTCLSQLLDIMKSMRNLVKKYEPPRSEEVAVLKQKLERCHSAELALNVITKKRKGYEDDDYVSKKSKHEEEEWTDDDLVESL
CDK7/CycH/MAT1, sequence (P51948 whole entry partner): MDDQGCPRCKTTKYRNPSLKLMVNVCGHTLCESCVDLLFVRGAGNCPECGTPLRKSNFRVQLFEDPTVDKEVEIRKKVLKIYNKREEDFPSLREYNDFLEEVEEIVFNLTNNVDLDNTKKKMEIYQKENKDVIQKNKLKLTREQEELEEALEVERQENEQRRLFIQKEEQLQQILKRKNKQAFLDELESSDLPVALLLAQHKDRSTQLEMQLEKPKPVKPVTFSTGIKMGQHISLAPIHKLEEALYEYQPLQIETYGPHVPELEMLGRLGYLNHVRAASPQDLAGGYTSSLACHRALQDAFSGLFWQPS

SMILES | IC50 (CDK7/CycH/MAT1) [nM] | IC50 [1, 7] [µM] | IC50 ([2]; Homo sapiens, MIA PaCa-2) [µM] | IC50 ([3]; Homo sapiens, MDA-MB-231) [µM] | IC50 ([4]; Homo sapiens, HPAC) [µM] | IC50 ([5]; Homo sapiens, A2780, Table 7a) [µM] | IC50 ([6]; Homo sapiens, A673, Table 7a) [µM] | IC50 ([1]; Table 7a) [µM] | IC50 [2] [µM] | IC50 [3] [µM] | IC50 [4] [µM] | IC50 ([5]; Table 7a) [µM] | IC50 ([6]; Table 7a) [µM]
CC(C)c1cnc2c(NCc3ccccc3)nc(SC3CCCNC3)cn12 (stereo not drawn) [Compound 26, N-benzyl-3-isopropyl-6-(piperidin-3-ylthio)imidazo[1,2-α]pyrazin-8-amine formate salt] | < 100 | 1 to 5 | > 5 | > 5 | 1 to 5 | 1 to 5 | 1 to 5 | – | – | – | – | – | –
CC(C)c1cnc2c(NCc3ccccc3OC(F)(F)F)cc(NC[C@@H]3CNCCO3)nn12 [Compound 46, (S)-3-isopropyl-N6-(morpholin-2-ylmethyl)-N8-(2-(trifluoromethoxy)benzyl)imidazo[1,2-b]pyridazine-6,8-diamine hydrochloride] | < 100 | > 5 | 1 to 5 | 1 to 5 | 1 to 5 | 1 to 5 | 1 to 5 | – | – | – | – | – | –
CC(C)c1cnc2c(N[C@@H](C)c3ccccc3)cc(SC3CCNCC3)nn12 [Compound 24, (S)-3-isopropyl-N-(1-phenylethyl)-6-(piperidin-4-ylthio)imidazo[1,2-b]pyridazin-8-amine] | < 100 | 1 to 5 | 1 to 5 | 1 to 5 | 1 to 5 | < 1 | 1 to 5 | – | – | – | – | – | –
CC(C)c1cnc2c(N[C@@H](C)c3ccccc3)nc(SC3CCNCC3)cn12 [Compound 32, (S)-3-isopropyl-N-(1-phenylethyl)-6-(piperidin-4-ylthio)imidazo[1,2-α]pyrazin-8-amine dihydrochloride] | < 100 | 1 to 5 | 1 to 5 | > 5 | 1 to 5 | 1 to 5 | 1 to 5 | – | – | – | – | – | –
c1ccc(CNc2cc(SC3CCCNC3)nn3c(C4CC4)cnc23)cc1 (stereo not drawn) [Compound 23, N-benzyl-3-cyclopropyl-6-(piperidin-3-ylthio)imidazo[1,2-b]pyridazin-8-amine dihydrochloride salt] | < 100 | – | – | – | – | – | – | 1 to 5 | 1 to 5 | 1 to 5 | 1 to 5 | 1 to 5 | 1 to 5
COc1ccccc1CNc1cc(SC2CCCNC2)nn2c(C(C)C)cnc12 (stereo not drawn) [Compound 36, hydrochloride] | < 100 | 1 to 5 | 1 to 5 | 1 to 5 | 1 to 5 | < 1 | 1 to 5 | – | – | – | – | – | –
CC(C)c1cnc2c(NCc3ccccc3OC(F)(F)F)cc(SC3CCNCC3)nn12 [Compound 33] | < 100 | 1 to 5 | < 1 | 1 to 5 | < 1 | < 1 | < 1 | – | – | – | – | – | –
CC(C)c1cnc2c(Nc3cccc(F)c3)cc(O[C@H]3CCCNC3)nn12 [Compound 39, (S)-N-(3-fluorophenyl)-3-isopropyl-6-(piperidin-3-yloxy)imidazo[1,2-b]pyridazin-8-amine hydrochloride] | < 100 | 1 to 5 | 1 to 5 | 1 to 5 | 1 to 5 | 1 to 5 | 1 to 5 | – | – | – | – | – | –
CC(C)c1cnc2c(NCc3ccccc3OC(F)(F)F)cc(OC3CCNCC3)nn12 [Compound 43, 3-isopropyl-6-(piperidin-4-yloxy)-N-(2-(trifluoromethoxy)benzyl)imidazo[1,2-b]pyridazin-8-amine hydrochloride] | < 100 | 1 to 5 | 1 to 5 | 1 to 5 | 1 to 5 | 1 to 5 | 1 to 5 | – | – | – | – | – | –
